For the assay, the system named is genotype A, "Long" strain RSV. Nature of the assay: RSV-A assay (CPE protection in Hep-2 cells, ATPlite readout). It counts as cell-based, Human respiratory syncytial virus (HRSV). The note with it: human respiratory syncytial virus, genotype A “Long” strain RSV, MOI 0.1, CPE protection, read-out: Human RSV-A (“Long”). From the text:
Hep-2 cells, (originally derived from tumors grown in irradiated-cortisonised weanling rats that had been injected with epidermoid carcinoma tissue from the larynx of a person, but later found to be indistinguishable from HeLa cells by PCR DNA analysis), were used for the culturing of genotype A, “Long” strain RSV. Flasks were inoculated with RSV and viral stocks were collected once cytopathic effect (CPE) was greater than 90%. Viral stocks in 25% sucrose media were snap frozen using liquid nitrogen to increase viral stability. Viral stock titers were quantified by tissue culture infectious dose 50% (TCID50) using 8,000 cells per well and 3-fold viral dilutions across a 96-well plate, cultured for 4 days. Viral stock titers were also quantified by a plaque forming unit assay, as described elsewhere.
Following extensive parameter testing, the final assay is run as follows: Hep-2 cells are seeded into the inner 60 wells of a 96-well plate at 8,000 cells per well in a volume of 50 μL using Growth Media (DMEM without phenol red, 1% L-Glut, 1% Penn/Strep, 1% nonessential amino acids, 10% heat-inactivated FBS). 2-fold serial dilutions of control and test compounds are added to the wells in duplicate in a total volume of 25 μL. Viral stock is then added to the wells at a multiplicity of infection (MOI) of 0.1 in a volume of 25 μL, bringing the total volume of each well to 100 μL. The MOI is calculated using the PFU/mL, or TCID50 if unavailable. Each 96-well plate has a control column of 6 wells with cells and virus but no compound (negative control, max CPE), a column with cells but no compound or virus (positive control, minimum CPE), and a column with no cells or virus or compound (background plate/reagent control). The control wells with cells but no virus are given an additional 25 μL of growth media containing an equal quantity of sucrose as those wells receiving the viral stock in order to keep consistent in media and volume conditions. The outer wells of the plate are filled with 125 μL of moat media (DMEM, 1% Penn/Strep) to act as a thermal and evaporative moat around the test wells. Following a 5-day incubation period, the plates are read using ATPlite (50 uL added per well), which quantifies the amount of ATP (a measure of cell health) present in each well. Assay plates are read using the Envision luminometer. […] EC50 ranges are as follows: A<0.2 μM; B>0.2 μM.
In general terms: Cellular ATP, detected with luciferase, serves as a proxy for viable cell number.

Structures are written as SMILES.

Take `COc1cc(C(=O)NC[C@](O)(c2cc3c(c(-c4ccc(F)cc4)n2)OC[C@]3(C)C(N)=O)C(F)(F)F)cc2c1NC(=O)C2` [Example 225]: the EC50 was under 200 nM.
The result for `Cc1cnc2c(NC(=O)NC34CC(O)(C3)C4)cc(C(=O)NC[C@](O)(c3cc4c(c(-c5ccc(F)cc5)n3)OC[C@]4(C)C(N)=O)C(F)(F)F)cc2c1` [Example 227] reads under 200 nM; that for `COc1cc(C(=O)NC[C@](O)(c2cc3c(c(-c4ccc(F)c(Cl)c4)n2)OC[C@]3(C)C(N)=O)C(F)(F)F)cc2cc(Cl)c(C)nc12` [Example 228], under 200 nM.
Take `COc1cnc2ccc(C(=O)NC[C@](O)(c3cc4c(c(-c5ccc(F)cc5)n3)OC[C@]4(C)C(N)=O)C(F)(F)F)cc2c1` [Example 229]: the EC50 was under 200 nM.
The result for `COc1cc(C(=O)NC[C@](O)(c2cc3c(c(-c4ccc(F)cc4)n2)OC[C@]3(C)C(N)=O)C(F)(F)F)cc2cn(C3(C)CC3)nc12` [Example 232] reads under 200 nM.
With `COc1cc(C(=O)NC[C@](O)(c2cc3c(c(-c4ccc(F)cc4)n2)OC[C@]3(CCl)C(N)=O)C(F)(F)F)cc2cc(C)c(C)nc12` [Example 233, (S)-3-(chloromethyl)-7-(4-fluorophenyl)-5-((S)-1,1,1-trifluoro-2-hydroxy-3-(8-methoxy-2,3-dimethylquinoline-6-carboxamido)propan-2-yl)-2,3-dihydrofuro[2,3-c]pyridine-3-carboxamide] the figure was under 200 nM; with `CC[C@]1(C(N)=O)COc2c1cc([C@@](O)(CNC(=O)c1cc(OC)c3nc(C4CC4)cn3c1)C(F)(F)F)nc2-c1ccc(F)cc1` [Example 236], under 200 nM; with `CC[C@]1(C(N)=O)COc2c1cc([C@@](O)(CNC(=O)c1cc(OC)c3ncccc3c1)C(F)(F)F)nc2-c1ccc(F)cc1` [Example 237], under 200 nM.
The result for `CC[C@]1(C(N)=O)COc2c1cc([C@@](O)(CNC(=O)c1cc(OC)c3nc(C)c(Cl)cc3c1)C(F)(F)F)nc2-c1ccc(F)cc1` [Example 238] reads over 200 nM; that for `CC[C@]1(C(N)=O)COc2c1cc([C@@](O)(CNC(=O)c1cc(OC)c3ncc(C(F)(F)F)cc3c1)C(F)(F)F)nc2-c1ccc(F)cc1` [Example 239], under 200 nM; that for `CC[C@]1(C(N)=O)COc2c1cc([C@@](O)(CNC(=O)c1ccc(OC3CC3)c(OC)c1)C(F)(F)F)nc2-c1ccc(F)cc1` [Example 241], under 200 nM.
Consider `CC[C@]1(C(N)=O)COc2c1cc([C@@](O)(CNC(=O)c1ccc(OC[C@@H](C)O)c(OC3CC3)c1)C(F)(F)F)nc2-c1ccc(F)cc1` [Example 242], for which the EC50 was under 200 nM.
The result for `CC[C@@]1(C(N)=O)COc2c1cc([C@@](O)(CNC(=O)c1cc(OC)c3nn(C(F)F)cc3c1)C(F)(F)F)nc2-c1ccc(F)cc1` [Example 243] reads over 200 nM.
With `CC[C@@]1(C(N)=O)COc2c1cc([C@@](O)(CNC(=O)c1cc(OC3CC3)c3ncccc3c1)C(F)(F)F)nc2-c1ccc(F)cc1` [Example 244] the figure was over 200 nM.
The result for `CC[C@@]1(C(N)=O)COc2c1cc([C@@](O)(CNC(=O)c1cc(OC)c3nc(C4CC4)cn3c1)C(F)(F)F)nc2-c1ccc(F)cc1` [Example 245] reads under 200 nM; that for `CC[C@@]1(C(N)=O)COc2c1cc([C@@](O)(CNC(=O)c1cc(OC)c3ncccc3c1)C(F)(F)F)nc2-c1ccc(F)cc1` [Example 246], over 200 nM; that for `CC[C@@]1(C(N)=O)COc2c1cc([C@@](O)(CNC(=O)c1cc(OC)c3nc(C)c(Cl)cc3c1)C(F)(F)F)nc2-c1ccc(F)cc1` [Example 247], over 200 nM.
For the compound `CC[C@@]1(C(N)=O)COc2c1cc([C@@](O)(CNC(=O)c1cc(OC)c3ncc(C(F)(F)F)cc3c1)C(F)(F)F)nc2-c1ccc(F)cc1` [Example 248], the EC50 is over 200 nM.
With `CC[C@@]1(C(N)=O)COc2c1cc([C@@](O)(CNC(=O)c1ccc(OC3CC3)c(OC)c1)C(F)(F)F)nc2-c1ccc(F)cc1` [Example 250] the figure was over 200 nM; with `CC[C@@]1(C(N)=O)COc2c1cc([C@@](O)(CNC(=O)c1ccc(OC[C@@H](C)O)c(OC3CC3)c1)C(F)(F)F)nc2-c1ccc(F)cc1` [Example 251], over 200 nM.
The result for `COc1cc(C(=O)NC[C@](O)(c2cc3c(c(-c4ccc(F)cc4)n2)OCC3(C(N)=O)C(F)F)C(F)(F)F)cc2c1=NC(C1CC1)N=2` (stereo partly shown) [Example 253] reads under 200 nM.
For `COc1cc(C(=O)NC[C@](O)(c2cc3c(c(-c4ccc(F)cc4)n2)OCC3(C(N)=O)C(F)F)C(F)(F)F)cc2cccnc12` (stereo partly shown) [Example 254], the EC50 is under 200 nM.
With `COc1cc(C(=O)NC[C@](O)(c2cc3c(c(-c4ccc(F)cc4)n2)OCC3(C(N)=O)C(F)F)C(F)(F)F)cc2cn(C(F)F)nc12` (stereo partly shown) [Example 255] the figure was under 200 nM; with `COc1cc(C(=O)NC[C@](O)(c2cc3c(c(-c4ccc(F)cc4)n2)OCC3(C(N)=O)C(F)F)C(F)(F)F)cc2cc(Cl)c(C)nc12` (stereo partly shown) [Example 256], under 200 nM.
With `COc1cc(C(=O)NC[C@](O)(c2cc3c(c(-c4ccc(F)cc4)n2)OCC3(C(N)=O)C(F)F)C(F)(F)F)cc2cc(C(F)(F)F)cnc12` (stereo partly shown) [Example 257] the figure was under 200 nM.
The result for `NC(=O)C1(C(F)F)COc2c1cc([C@@](O)(CNC(=O)c1cc(F)c3nc(N)sc3c1)C(F)(F)F)nc2-c1ccc(F)cc1` (stereo partly shown) [Example 258] reads under 200 nM; that for `COc1cc(C(=O)NC[C@](O)(c2cc3c(c(-c4ccc(F)cc4)n2)OCC3(C(N)=O)C(F)F)C(F)(F)F)cn2cc(C3CC3)nc12` (stereo partly shown) [Example 259], under 200 nM; that for `COc1cc(C(=O)NC[C@](O)(c2cc3c(c(-c4ccc(F)cc4)n2)OCC3(C(N)=O)C(F)F)C(F)(F)F)ccc1OC1CC1` (stereo partly shown) [Example 261], under 200 nM.
Consider `NC(=O)[C@]1(C2CC2)COc2c1cc([C@@](O)(CNC(=O)c1cc(F)c3nc(N)sc3c1)C(F)(F)F)nc2-c1ccc(F)cc1` [Example 262], for which the EC50 is over 200 nM.
With `COc1cc(C(=O)NC[C@](O)(c2cc3c(c(-c4ccc(F)cc4)n2)OC[C@]3(C(N)=O)C2CC2)C(F)(F)F)cc2cc(C(F)(F)F)cnc12` [Example 264], the EC50 was over 200 nM.
With `COc1cc(C(=O)NC[C@](O)(c2cc3c(c(-c4ccc(F)cc4)n2)OC[C@]3(C(N)=O)C2CC2)C(F)(F)F)cc2cn(C(F)F)nc12` [Example 266] the figure was over 200 nM; with `COc1cc(C(=O)NC[C@](O)(c2cc3c(c(-c4ccc(F)cc4)n2)OC[C@]3(C(N)=O)C2CC2)C(F)(F)F)cc2cccnc12` [Example 269], over 200 nM.
For the compound `NC(=O)[C@]1(C2CC2)COc2c1cc([C@@](O)(CNC(=O)c1cc(OC3CC3)c3ncccc3c1)C(F)(F)F)nc2-c1ccc(F)cc1` [Example 271], the EC50 was over 200 nM.
For the compound `COc1cc(C(=O)NC[C@](O)(c2cc3c(c(-c4ccc(F)cc4)n2)OC[C@@]3(C(N)=O)C2CC2)C(F)(F)F)cn2cc(C3CC3)nc12` [Example 272], the EC50 was under 200 nM.
With `COc1cc(C(=O)NC[C@](O)(c2cc3c(c(-c4ccc(F)cc4)n2)OC[C@]3(C(N)=O)C2CC2)C(F)(F)F)cn2cc(C3CC3)nc12` [Example 273] the figure was over 200 nM; with `COc1cc(C(=O)NC[C@](O)(c2cc3c(c(-c4ccc(F)cc4)n2)OC[C@@]3(C(N)=O)C2CC2)C(F)(F)F)cc2cc(Cl)c(C)nc12` [Example 274], under 200 nM; with `COc1cc(C(=O)NC[C@](O)(c2cc3c(c(-c4ccc(F)cc4)n2)OC[C@]3(C(N)=O)C2CC2)C(F)(F)F)cc2cc(Cl)c(C)nc12` [Example 275], under 200 nM.
With `COc1cc(C(=O)NC[C@](O)(c2cc3c(c(-c4ccc(F)cc4)n2)OC[C@@]3(C(N)=O)C2CC2)C(F)(F)F)ccc1OC1CC1` [Example 276] the figure was under 200 nM; with `COc1cc(C(=O)NC[C@](O)(c2cc3c(c(-c4ccc(F)cc4)n2)OC[C@]3(C(N)=O)C2CC2)C(F)(F)F)ccc1OC1CC1` [Example 277], over 200 nM.
The result for `C[C@@H](O)COc1ccc(C(=O)NC[C@](O)(c2cc3c(c(-c4ccc(F)cc4)n2)OC[C@@]3(C(N)=O)C2CC2)C(F)(F)F)cc1OC1CC1` [Example 278] reads under 200 nM; that for `C[C@@H](O)COc1ccc(C(=O)NC[C@](O)(c2cc3c(c(-c4ccc(F)cc4)n2)OC[C@]3(C(N)=O)C2CC2)C(F)(F)F)cc1OC1CC1` [Example 279], over 200 nM.
For the compound `COc1cc(C(=O)NC[C@](O)(c2cc3c(c(-c4ccc(F)cc4)n2)OC[C@]3(C(N)=O)C2CC2)C(F)(F)F)cc2cn(C3CC3)nc12` [Example 281], the EC50 was over 200 nM.
With `COc1cc(C(=O)NC[C@](O)(c2cc3c(c(-c4ccc(F)cc4)n2)OC[C@@]3(CF)C(N)=O)C(F)(F)F)cc2cccnc12` [Example 282] the figure was over 200 nM.

The record behind these values is US12612412B2, “Antiviral heterocyclic compounds” (Enanta Pharmaceuticals, Inc., priority 2021, dated 2026).
